The source of these data is patent US20260152498A1, “4,5,6,7-TETRAHYDRO-1H-PYRAZOLO[4,3-c]PYRIDINE COMPOUNDS AND DERIVATIVES AS USP1 INHIBITORS” (EXELIXIS, INC., priority 2022, published 2026).

Test [1] deals with T1, USP1-UAF1 complex (Homo sapiens, UniProt O94782). The following applies: 1.2 µM.
Protocol: (§1) Biochemical Assay: The compounds were evaluated for their potential to inhibit USP1-UAF1 complex (Boston Biochem, Catalog: E568-050) using a fluorescence-based assay. The final concentrations of USP1-UAF1 complex protein and substrate Ubiquitin-Rhodamine-110 (R&D systems, Catalog U-555-050) used in the assay were 0.45 and 150 nM respectively. 50 mM HEPES pH. 7.5, 100 mM NaCl, 0.5 mM EDTA, 1 mM TCEP, 10% BSA, 0.01% Tween 20 buffer was used in the assay. The total assay volume was 20 μL. […] The final DMSO concentration in the assay was 1%. The compounds were pre-incubated with USP1-UAF1 complex at 25° C. for 15 min. After preincubation, required concentration of substrate was added and incubated at 25° C. for 60 min. Fluorescence at Excitation: 485 nm, Emission: 535 nm was measured in Victor-5 from Perkin Elmer.
(§2) To determine IC50 values, dose response curves were generated by plotting percentage inhibition as a function of inhibitor concentration and the data was fitted to sigmoidal non-linear regression equation (variable slope) using Graph Pad prism software V8.
(§3) The compounds were screened by the above-mentioned assay procedure.
The target of test [2] is T1, USP1-UAF1 complex. Briefly: biochemical.
Protocol: as §1, §2, §3

T1 sequence (O94782 whole entry): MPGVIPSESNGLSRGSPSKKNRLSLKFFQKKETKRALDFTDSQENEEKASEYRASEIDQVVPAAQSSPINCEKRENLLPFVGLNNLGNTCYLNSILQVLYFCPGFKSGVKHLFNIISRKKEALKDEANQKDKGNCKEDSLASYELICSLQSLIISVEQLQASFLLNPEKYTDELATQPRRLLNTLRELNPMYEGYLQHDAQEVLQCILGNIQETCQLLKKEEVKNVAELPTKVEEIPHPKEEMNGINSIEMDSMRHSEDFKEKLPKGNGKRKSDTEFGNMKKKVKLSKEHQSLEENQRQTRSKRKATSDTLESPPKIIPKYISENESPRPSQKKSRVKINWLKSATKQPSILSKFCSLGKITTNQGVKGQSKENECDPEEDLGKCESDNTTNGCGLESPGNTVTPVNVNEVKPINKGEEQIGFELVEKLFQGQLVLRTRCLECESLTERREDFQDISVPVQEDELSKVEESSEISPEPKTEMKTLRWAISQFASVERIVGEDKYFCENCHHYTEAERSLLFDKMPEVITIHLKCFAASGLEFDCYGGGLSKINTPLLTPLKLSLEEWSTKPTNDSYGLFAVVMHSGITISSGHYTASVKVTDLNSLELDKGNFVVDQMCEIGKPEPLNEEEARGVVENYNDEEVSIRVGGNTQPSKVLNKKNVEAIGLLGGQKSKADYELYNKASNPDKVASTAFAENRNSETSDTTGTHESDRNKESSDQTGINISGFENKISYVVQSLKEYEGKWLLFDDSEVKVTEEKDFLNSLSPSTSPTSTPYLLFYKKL
T1 sequence (Q8TAF3 whole entry partner): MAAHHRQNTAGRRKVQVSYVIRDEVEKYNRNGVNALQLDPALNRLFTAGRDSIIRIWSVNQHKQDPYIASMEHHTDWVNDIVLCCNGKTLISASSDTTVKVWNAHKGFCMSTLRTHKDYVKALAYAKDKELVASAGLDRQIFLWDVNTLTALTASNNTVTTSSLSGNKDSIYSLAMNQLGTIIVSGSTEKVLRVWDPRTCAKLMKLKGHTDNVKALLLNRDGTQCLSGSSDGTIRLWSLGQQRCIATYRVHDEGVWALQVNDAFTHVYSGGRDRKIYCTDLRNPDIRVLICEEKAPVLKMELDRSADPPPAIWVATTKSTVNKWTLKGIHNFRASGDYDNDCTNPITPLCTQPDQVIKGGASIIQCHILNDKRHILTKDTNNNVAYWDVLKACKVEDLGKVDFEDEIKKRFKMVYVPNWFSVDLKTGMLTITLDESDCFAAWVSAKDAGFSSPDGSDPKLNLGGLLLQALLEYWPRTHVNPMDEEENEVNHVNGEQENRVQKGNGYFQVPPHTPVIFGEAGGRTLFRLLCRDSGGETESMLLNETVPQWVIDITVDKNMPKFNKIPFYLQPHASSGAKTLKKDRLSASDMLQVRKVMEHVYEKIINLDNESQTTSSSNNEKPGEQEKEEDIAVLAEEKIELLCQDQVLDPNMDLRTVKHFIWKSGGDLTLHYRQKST

The inhibition is how much of the control response was suppressed. Read a high inhibition as strong suppression. What is called IC50 is the concentration at which inhibition is half-maximal. Read a low IC50 as higher potency. At USP1-UAF1 complex [1], `CCn1nc(-c2c(OC)ncnc2C2CC2)c2c1CCN(c1ccc(-c3nc(C(F)(F)F)cn3C)nc1)C2` [Compound 25, 3-(4-cyclopropyl-6-methoxypyrimidin-5-yl)-1-ethyl-5-(6-(1-methyl-4-(trifluoromethyl)-1H-imidazol-2-yl)pyridin-3-yl)-4,5,6,7-tetrahydro-1H-pyrazolo[4,3-c]pyridine] showed an inhibition of 92%. For the same compound, the IC50 at USP1-UAF1 complex [2] was above 100 nM.
For `CCn1nc(-c2c(OC)ncnc2C2CC2)c2c1CCN(c1ccc(-c3nc(C(F)(F)F)cn3C)cn1)C2` [Compound 26, 3-(4-cyclopropyl-6-methoxypyrimidin-5-yl)-1-ethyl-5-(5-(1-methyl-4-(trifluoromethyl)-1H-imidazol-2-yl)pyridin-2-yl)-4,5,6,7-tetrahydro-1H-pyrazolo[4,3-c]pyridine] the same measures were 90% and above 100 nM.
The like results for `COc1ncnc(C2CC2)c1-c1nn(C(C)C)c2c1CN(c1ccc(-c3nc(C(F)(F)F)cn3C)cc1)CC2` [Compound 27, 3-(4-cyclopropyl-6-methoxypyrimidin-5-yl)-1-isopropyl-5-(4-(1-methyl-4-(trifluoromethyl)-1H-imidazol-2-yl)phenyl)-4,5,6,7-tetrahydro-1H-pyrazolo[4,3-c]pyridine] were, in that order, 98% and below 50 nM.
For `COc1ncnc(C2CC2)c1-c1nn(C(C)C)c2c1CN(c1ccc(-c3nc(C(F)(F)F)cn3C)nc1)CC2` [Compound 28, 3-(4-cyclopropyl-6-methoxypyrimidin-5-yl)-1-isopropyl-5-(6-(1-methyl-4-(trifluoromethyl)-1H-imidazol-2-yl)pyridin-3-yl)-4,5,6,7-tetrahydro-1H-pyrazolo[4,3-c]pyridine] the same measures were 90% and above 100 nM.
Compound `COc1ncnc(C2CC2)c1-c1nn(C(C)C)c2c1CN(c1ccc(-c3nc(C(F)(F)F)cn3C)cn1)CC2` [Compound 29, 3-(4-cyclopropyl-6-methoxypyrimidin-5-yl)-1-isopropyl-5-(5-(1-methyl-4-(trifluoromethyl)-1H-imidazol-2-yl)pyridin-2-yl)-4,5,6,7-tetrahydro-1H-pyrazolo[4,3-c]pyridine] displayed an inhibition at USP1-UAF1 complex [1] of 90%. The half-maximal inhibitory concentration (IC50) at USP1-UAF1 complex [2] was above 100 nM.
For `COc1ncnc(C2CC2)c1-c1nn(C2CC2)c2c1CN(c1ccc(-c3nc(C(F)(F)F)cn3C)cc1)CC2` [Compound 30, 1-cyclopropyl-3-(4-cyclopropyl-6-methoxypyrimidin-5-yl)-5-(4-(1-methyl-4-(trifluoromethyl)-1H-imidazol-2-yl)phenyl)-4,5,6,7-tetrahydro-1H-pyrazolo[4,3-c]pyridine] the same measures were 98% and below 50 nM.
On USP1-UAF1 complex [1], `COc1ncnc(C2CC2)c1-c1nn(C2CC2)c2c1CN(c1ccc(-c3nc(C(F)(F)F)cn3C)nc1)CC2` [Compound 31, 1-cyclopropyl-3-(4-cyclopropyl-6-methoxypyrimidin-5-yl)-5-(6-(1-methyl-4-(trifluoromethyl)-1H-imidazol-2-yl)pyridin-3-yl)-4,5,6,7-tetrahydro-1H-pyrazolo[4,3-c]pyridine] came in with an inhibition of 86%. This compound also returned an IC50 against USP1-UAF1 complex [2] above 100 nM.
The like results for `COc1ncnc(C2CC2)c1-c1nn(C2CC2)c2c1CN(c1ccc(-c3nc(C(F)(F)F)cn3C)cn1)CC2` [Compound 32, 1-cyclopropyl-3-(4-cyclopropyl-6-methoxypyrimidin-5-yl)-5-(5-(1-methyl-4-(trifluoromethyl)-1H-imidazol-2-yl)pyridin-2-yl)-4,5,6,7-tetrahydro-1H-pyrazolo[4,3-c]pyridine] were, in that order, 89% and above 100 nM.
For `COc1ncnc(C2CC2)c1-c1nn(C2CCC2)c2c1CN(c1ccc(-c3nc(C(F)(F)F)cn3C)cc1)CC2` [Compound 33, 1-cyclobutyl-3-(4-cyclopropyl-6-methoxypyrimidin-5-yl)-5-(4-(1-methyl-4-(trifluoromethyl)-1H-imidazol-2-yl)phenyl)-4,5,6,7-tetrahydro-1 H-pyrazolo[4,3-c]pyridine] the same measures were 90% and 50 to 100 nM.
The compound `COc1ncnc(C2CC2)c1-c1nn(C2CCC2)c2c1CN(c1ccc(-c3nc(C(F)(F)F)cn3C)nc1)CC2` [Compound 34, 1-cyclobutyl-3-(4-cyclopropyl-6-methoxypyrimidin-5-yl)-5-(6-(1-methyl-4-(trifluoromethyl)-1H-imidazol-2-yl)pyridin-3-yl)-4,5,6,7-tetrahydro-1H-pyrazolo[4,3-c]pyridine] gave an inhibition on USP1-UAF1 complex [1] of 75%. Also, the 50% inhibitory concentration (IC50) at USP1-UAF1 complex [2] is above 100 nM.
For `COc1ncnc(C2CC2)c1-c1nn(C2CCC2)c2c1CN(c1ccc(-c3nc(C(F)(F)F)cn3C)cn1)CC2` [Compound 35, 1-cyclobutyl-3-(4-cyclopropyl-6-methoxypyrimidin-5-yl)-5-(5-(1-methyl-4-(trifluoromethyl)-1H-imidazol-2-yl)pyridin-2-yl)-4,5,6,7-tetrahydro-1H-pyrazolo[4,3-c]pyridine] the same measures were 76% and above 100 nM.
`COc1ncnc(C2CC2)c1-c1nn(Cc2ccccc2)c2c1CN(c1ccc(-c3nc(C(F)(F)F)cn3C)cc1)CC2` [Compound 36, 1-benzyl-3-(4-cyclopropyl-6-methoxypyrimidin-5-yl)-5-(4-(1-methyl-4-(trifluoromethyl)-1H-imidazol-2-yl)phenyl)-4,5,6,7-tetrahydro-1H-pyrazolo[4,3-c]pyridine] registered an inhibition at USP1-UAF1 complex [1] of 99%. The compound also showed an IC50 at USP1-UAF1 complex [2] below 50 nM.
On to `COc1ncnc(C2CC2)c1-c1nn(Cc2ccccc2)c2c1CN(c1ccc(-c3nc(C(F)(F)F)cn3C)cn1)CC2` [Compound 37, 1-benzyl-3-(4-cyclopropyl-6-methoxypyrimidin-5-yl)-5-(5-(1-methyl-4-(trifluoromethyl)-1H-imidazol-2-yl)pyridin-2-yl)-4,5,6,7-tetrahydro-1H-pyrazolo[4,3-c]pyridine], for which the inhibition against USP1-UAF1 complex [1] worked out at 98%. The same compound gave an IC50 on USP1-UAF1 complex [2] of 50 to 100 nM.
The like results for `COc1ncnc(C2CC2)c1-c1nn(C)c2c1CN(c1ccc(-c3nc(C(F)(F)F)cn3C)cc1)CC2C` (centres unmarked) [Compound 38, 3-(4-cyclopropyl-6-methoxypyrimidin-5-yl)-1,7-dimethyl-5-(4-(1-methyl-4-(trifluoromethyl)-1H-imidazol-2-yl)phenyl)-4,5,6,7-tetrahydro-1H-pyrazolo[4,3-c]pyridine] were, in that order, 99% and below 50 nM.
Regarding `COc1ncnc(C2CC2)c1-c1nn(C)c2c1CN(c1ccc(-c3nc(C(F)(F)F)cn3C)nc1)CC2C` (centres unmarked) [Compound 39, 3-(4-cyclopropyl-6-methoxypyrimidin-5-yl)-1,7-dimethyl-5-(6-(1-methyl-4-(trifluoromethyl)-1H-imidazol-2-yl)pyridin-3-yl)-4,5,6,7-tetrahydro-1H-pyrazolo[4,3-c]pyridine], the inhibition on USP1-UAF1 complex [1] was 98%. This compound also came in with an IC50 on USP1-UAF1 complex [2] of 50 to 100 nM.
With `COc1ncnc(C2CC2)c1-c1nn(C)c2c1CN(c1ccc(-c3nc(C(F)(F)F)cn3C)cn1)CC2C` (centres unmarked) [Compound 40, 3-(4-cyclopropyl-6-methoxypyrimidin-5-yl)-1,7-dimethyl-5-(5-(1-methyl-4-(trifluoromethyl)-1H-imidazol-2-yl)pyridin-2-yl)-4,5,6,7-tetrahydro-1H-pyrazolo[4,3-c]pyridine], the inhibition at USP1-UAF1 complex [1] was 97%. At USP1-UAF1 complex [2], the IC50 was 50 to 100 nM.
Compound `COc1ncnc(C2CC2)c1-c1nn(C)c2c1CN(c1ccc(-c3nc(C(F)(F)F)cn3C)cc1)CC2(C)C` [Compound 41, 3-(4-cyclopropyl-6-methoxypyrimidin-5-yl)-1,7,7-trimethyl-5-(4-(1-methyl-4-(trifluoromethyl)-1H-imidazol-2-yl)phenyl)-4,5,6,7-tetrahydro-1H-pyrazolo[4,3-c]pyridine] had an inhibition against USP1-UAF1 complex [1] of 100%. At USP1-UAF1 complex [2], the IC50 is below 50 nM.
The like results for `COc1ncnc(C2CC2)c1-c1nn(C)c2c1CN(c1ccc(-c3nc(C(F)(F)F)cn3C)nc1)CC2(C)C` [Compound 42, 3-(4-cyclopropyl-6-methoxypyrimidin-5-yl)-1,7,7-trimethyl-5-(6-(1-methyl-4-(trifluoromethyl)-1H-imidazol-2-yl)pyridin-3-yl)-4,5,6,7-tetrahydro-1H-pyrazolo[4,3-c]pyridine] were, in that order, 96% and 50 to 100 nM.
In turn, `COc1ncnc(C2CC2)c1-c1nn(C)c2c1CN(c1ccc(-c3nc(C(F)(F)F)cn3C)cn1)CC2(C)C` [Compound 43, 3-(4-cyclopropyl-6-methoxypyrimidin-5-yl)-1,7,7-trimethyl-5-(5-(1-methyl-4-(trifluoromethyl)-1H-imidazol-2-yl)pyridin-2-yl)-4,5,6,7-tetrahydro-1H-pyrazolo[4,3-c]pyridine] gave an inhibition against USP1-UAF1 complex [1] of 98%. The compound also came in with an IC50 against USP1-UAF1 complex [2] of 50 to 100 nM.
The like results for `COc1ncnc(C2CC2)c1-c1nn(C)c2c1CN(c1ccc(-c3nc(C(F)(F)F)cn3C)c(F)c1)CC2` [Compound 44, 3-(4-cyclopropyl-6-methoxypyrimidin-5-yl)-5-(3-fluoro-4-(1-methyl-4-(trifluoromethyl)-1H-imidazol-2-yl)phenyl)-1-methyl-4,5,6,7-tetrahydro-1H-pyrazolo[4,3-c]pyridine] were, in that order, 100% and below 50 nM.
At USP1-UAF1 complex [1], `COc1ncnc(C2CC2)c1-c1nn(C)c2c1CN(c1ccc(-c3nc(C(F)(F)F)cn3C)c(Cl)c1)CC2` [Compound 45, 5-(3-chloro-4-(1-methyl-4-(trifluoromethyl)-1H-imidazol-2-yl)phenyl)-3-(4-cyclopropyl-6-methoxypyrimidin-5-yl)-1-methyl-4,5,6,7-tetrahydro-1H-pyrazolo[4,3-c]pyridine] returned an inhibition of 98%. This compound also returned an IC50 against USP1-UAF1 complex [2] below 50 nM.
At USP1-UAF1 complex [1], `COc1cc(N2CCc3c(c(-c4c(OC)ncnc4C4CC4)nn3C)C2)ccc1-c1nc(C(F)(F)F)cn1C` [Compound 46, 3-(4-cyclopropyl-6-methoxypyrimidin-5-yl)-5-(3-methoxy-4-(1-methyl-4-(trifluoromethyl)-1H-imidazol-2-yl)phenyl)-1-methyl-4,5,6,7-tetrahydro-1H-pyrazolo[4,3-c]pyridine] showed an inhibition of 96%. The compound also gave a half-maximal inhibitory concentration (IC50) against USP1-UAF1 complex [2] of 50 to 100 nM.
